Patent publication US20130040331A1, “LABEL-FREE METHODS RELATED TO hERG POTASSIUM ION [sequence]” (CORNING INCORPORATED, priority 2009, published 2013)
“Also recorded” adds a separate entry of the source. Read-outs that look alike come from different tables or passages of the source.

Key:
[1] = tested on: hERG channel or hERG-associated signaling complex; assay: Classification of hERG modulators by label-free biosensor profiles across three cell lines plus mallotoxin modulation index; assay type: cell-based, human
Description: The traditional hERG ion channel assay involves assaying ion flux such as Rb^+ flux using ion absorption assays, or assaying hERG currents directly using patch clamping methods. Traditionally, a molecule which causes increase in Rb^+ flux and/or hERG currents is referred to a hERG activator, while a molecule which inhibits Rb^+ flux and/or hERG currents is referred to a hERG inhibitor. […] These hERG activators may or may not result in detectable biosensor signals in cells, using label-free biosensor cellular assays. A hERG activator that results in a detectable biosensor signal in a hERG expressing cell via hERG or hERG signaling complex is also referred to a label-free biosensor hERG activator.
Disclosed are methods of classifying a molecule for modulating hERG activity, comprising the steps: a. incubating a molecule individually with at least three different types of cells consisting of a native cell endogenously expressing hERG, an engineered cell stably expressing hERG and its parental cell without expressing hERG, and b. monitoring the molecule induced cellular response on each cell type with a label-free biosensor cellular assay,
Also disclosed are methods, further comprising as steps c) incubating a label-free biosensor hERG activator with each cell type in the presence of the molecule, d. monitoring the label-free biosensor hERG activator induced cellular response on each cell type in the presence of the molecule, e. generating a biosensor modulation index of the molecule against the label-free biosensor hERG activator induced biosensor signals in the two hERG expressing cell types.
(§1) The DMR modulation index was generated by normalizing the mallotoxin DMR signal in either cell line in the presence of compound […] to its corresponding DMR signal in the absence of the compound, and the percentage of modulation was based on the amplitude of the mallotoxin DMR signal at a specific time (−18 min after stimulation for HEK-hERG cells, and ˜50 min after stimulation for HT29 cells, respectively). Mallotoxin is known to display polypharmacology. It is also known to be a protein kinase C (PKC) inhibitor; and PKC is a downstream signaling component of hERG activation. Thus, it would be difficult or almost impossible to assign the mode(s) of action of mallotoxin to be a hERG activator when either cell line is individually assayed with the label-free biosensor (i.e., Epic® system). […] However, combining the primary DMR profiles of a compound across the three cell lines tested with the modulation index of the compound against the mallotoxin responses in both HT29 and […] cells can correctly identify whether the compound is a hERG activator or not. The results shown in FIG. 1 indicate that indeed mallotoxin is a hERG activator; and the activation of hERG can result in detectable biosensor responses in the two hERG expressing cell lines.

[2] = tested on: mallotoxin DMR signal in HT29 cells; assay: DMR modulation index against the mallotoxin DMR signal in HT29 cells; assay type: cell-based, human
Description: (§2) A “molecule modulation index” or like terms is an index to display the ability of the molecule to modulate the biosensor output signals of the panels of markers acting on the panel of cells. The modulation index is generated by normalizing a specific biosensor output signal parameter of a response of a cell upon stimulation with a marker in the presence of a molecule against that in the absence of any molecule.
(§3) Epic® wavelength interrogation system (Corning Inc., Corning, N.Y.) was used for whole cell sensing. This system consists of a temperature-control unit, an optical detection unit, and an on-board liquid handling unit with robotics. The detection unit is centered on integrated fiber optics, and enables kinetic measures of cellular responses with a time interval of ˜15 sec.
(§4) Cells were plated in 384-well Epic® cell culture treated plate (Corning Cat#5040) 16-20 hours before assay (15000 cells/well for HEK293 and HEK-hERG cells, 30000 cells/well for HT29 cells). For both HEK-hERG and its parental HEK293 cells, each well was coated with 10 μl 5 μg/ml fibronectin. One hour before assay, cells were washed twice on a BioTek ELx405 Select washer with Hank's Balanced Salt Solution (HBSS) containing 20 mM Hepes. Cells were incubated in 40 μl/well HBSS at 28° C. inside the Epic system for one hour. For each assay, a 2-min baseline was initiated, followed by addition of 10 μl compound solutions (5×) and the cell responses were recorded continuously for one hour.
(§5) All studies were carried out at a controlled temperature (28° C.). At least two independent sets of experiments, each with at least three replicates, were performed. […] All dose-dependent responses were analyzed using non-linear regression method with the GraphPad Prism 5.
as §1

[3] = target: T1, hERG channel (Homo sapiens, UniProt Q12809); assay: Rb+ flux assay using HEK-hERG cells; settings: for effect on hERG ion flux (Rb+ flux, FIG. 6): HEK-hERG cells, overall statement, KCl and concentration not specified
T1 sequence (Q12809 whole entry): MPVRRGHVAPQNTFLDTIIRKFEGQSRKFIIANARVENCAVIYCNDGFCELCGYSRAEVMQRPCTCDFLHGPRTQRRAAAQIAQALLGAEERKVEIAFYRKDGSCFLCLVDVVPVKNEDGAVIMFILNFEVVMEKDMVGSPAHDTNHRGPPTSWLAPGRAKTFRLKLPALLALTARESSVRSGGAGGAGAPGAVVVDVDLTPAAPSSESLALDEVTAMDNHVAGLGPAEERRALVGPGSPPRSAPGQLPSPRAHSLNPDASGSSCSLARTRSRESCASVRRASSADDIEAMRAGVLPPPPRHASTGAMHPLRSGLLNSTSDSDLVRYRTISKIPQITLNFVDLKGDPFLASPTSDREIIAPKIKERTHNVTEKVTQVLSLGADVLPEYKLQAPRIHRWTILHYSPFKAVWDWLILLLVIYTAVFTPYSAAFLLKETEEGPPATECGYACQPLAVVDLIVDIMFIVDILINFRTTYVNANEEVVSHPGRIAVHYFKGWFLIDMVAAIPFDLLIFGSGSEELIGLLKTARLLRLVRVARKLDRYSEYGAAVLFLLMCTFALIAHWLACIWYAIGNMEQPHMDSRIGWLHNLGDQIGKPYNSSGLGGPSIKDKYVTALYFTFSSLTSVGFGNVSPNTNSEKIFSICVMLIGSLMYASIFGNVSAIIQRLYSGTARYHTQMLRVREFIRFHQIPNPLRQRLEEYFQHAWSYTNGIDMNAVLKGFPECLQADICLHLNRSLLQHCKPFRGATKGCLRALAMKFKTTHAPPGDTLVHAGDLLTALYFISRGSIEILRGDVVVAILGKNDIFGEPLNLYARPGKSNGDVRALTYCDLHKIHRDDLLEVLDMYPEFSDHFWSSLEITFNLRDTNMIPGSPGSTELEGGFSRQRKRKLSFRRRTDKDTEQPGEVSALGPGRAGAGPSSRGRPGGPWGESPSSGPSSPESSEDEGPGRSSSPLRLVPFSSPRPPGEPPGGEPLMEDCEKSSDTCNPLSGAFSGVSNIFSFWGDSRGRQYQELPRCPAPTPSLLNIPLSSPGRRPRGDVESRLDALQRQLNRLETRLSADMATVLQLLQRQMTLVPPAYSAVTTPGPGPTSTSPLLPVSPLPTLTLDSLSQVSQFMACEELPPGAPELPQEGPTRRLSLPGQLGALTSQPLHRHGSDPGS
Protocol: Briefly, 50,000 cells per well were plated in 96-well tissue culture treated plates 20 hours before assay. In the next day, cells were incubated with complete cell culture medium containing 5 mM RbCl for 3 hours at 37° C. with 5% CO2. Then compounds (10×) diluted in HBSS were added into the cell culture medium and cells were incubated at 37° C. with 5% CO2 for another hour. Cells were washed twice with Rb^+ free cell culture medium and incubated with 180 μl/well of cell culture medium containing different concentration of KCl for exactly 10 minutes. The supernatant from each well was transferred to a new 96 well plate immediately. Cells were lysed with 180 μl/well 0.5% Triton-100 in HBSS. The Rb^+ concentration of each sample was determined by ICR8000 (Aurora Biomed Inc.).

[4] = tested on: HEK-hERG cells; assay: Label-free RWG biosensor (Epic) DMR assay, agonism mode, HEK-hERG cells stably expressing hERG; assay type: cell-based, human
Protocol: as §3, §4, §5
(§6) Three different types of cells: human colon cancerous cell line HT-29, HEK293 and its engineered HEK-hERG cell lines were used. HT-29 is known to endogenously express hERG channels. HEK293 is a native cell line without endogenously expressed hERG channels, while HEK-hERG is an engineered HEK293 cells having stably expressed hERG channels. Mallotoxin, a newly discovered hERG activator, was used to activate hERG channels at or near physiological conditions (i.e., 1×HBSS buffered conditions).

[5] = tested on: mallotoxin DMR signal in HEK-hERG cells; assay type: cell-based, human
Description: as §2, §3, §4, §5, §1

[6] = tested on: HT29 cells; assay: Label-free RWG biosensor (Epic) DMR assay, agonism mode, HT29 cells endogenously expressing hERG; assay type: cell-based, human
Protocol: as §3, §4, §5, §6

[7] = tested on: HEK293 cells; assay: Label-free RWG biosensor (Epic) DMR assay, agonism mode, native HEK293 cells without hERG; assay type: cell-based, human
Protocol: as §3, §4
All studies were carried out at a controlled temperature (28° C.). At least two independent sets of experiments, each with at least three replicates, were performed. […] All dose-dependent responses were analyzed using non-linear regression method with the GraphPad Prism 5. […]

[8] = tested on: phosphodiesterase 4; assay: Effect on phosphodiesterase 4 activity (data not shown)
[9] = tested on: PKC; assay: Effect on PKC activity (data not shown)
[10] = target: T1, hERG channel; assay: Automated patch clamp recording of hERG current using IonWorks, CHO-hERG cells
Protocol: CHO—K1 cells stably expressing hERG channel (CHO-hERG) were cultured in T175 flask till about 70% confluent. Cells were washed twice with PBS, then 2.5 ml 0.25% Trypsin/EDTA was mixed with 2.5 ml PBS and added to the T175 flask. Cells were incubated about 2 minutes with the diluted Trypsin/EDTA solution at 37° C., then were continuously incubated about 3 minutes at room temperature. 20 ml fresh medium were added to suspend the cells and transfer to a 50 ml tube. Cells were centrifuged down at 750 rpm for 5 minutes. The extra medium was removed and cells were resuspended in 6 ml External Buffer (137 mM NaCl, 4 mM KCl, 1.8 mM CaCl2, 1 mM MgCl2, 10 mM HEPES, 10 mM glucose, pH 7.4). Then cells were centrifuged again at 450 rpm for another 5 minutes. Finally cells were resuspended in 4 ml the External Buffer, cell number was counted using a hemacytometer. Cell suspension was diluted to 2.5×10^6 cells/ml with the External Buffer. 4 ml of the resuspended cells were added to the cell reservoir in IonWorks. The Internal solution used contains: 40 mM KCl, 100 mM K-Gluconate, 3.2 mM MgCl2, 2 mM CaCl2, 5 mM HEPES, pH 7.25 (adjusted with KOH). 5 mg Amphotericin B from 200 ul DMSO stock was added to 65 ml the Internal solution and mixed well to achieve electrical access to the interior of cells on the patch plate.
Compounds were prepared from 10 mM DMSO stock and diluted in the External Buffer to make 3× compound solution. […] of the 3× compound solution was transferred to a 384 well plate in Row A, B, C and D. PD11857 (Sigma-Aldrich), a reported hERG channel activator was used as activator positive control (final concentration 30 and 50 μM). hERG blocker dofetilide was used as blocker positive control (final concentration 100 nM). The final DMSO concentration in the IonWorks Quattro PatchPlate PPC plate (Cat#9000-0902, Molecular Devices) was 0.5%. Final compound concentration was 50 μM. Each compound was added to four wells of one PPC plate.
hERG currents were recorded on IonWorks Quattro (Molecular Devices). To record hERG current, the cells were clamped at −80 mV initially, then followed by a 5-s depolarization at +40 mV to activate the channels. Tail currents were measured during an ensuing return to −35 mV. Data analysis were done using IonWorks Quttro® System Software version 2.0.4.4. Data from wells with seal resistance less than 50 MΩ or hERG tail currents less than 0.1 nA were filtered out. […] Inhibitor hits were selected if hERG tail currents ratio (post/pre-compound) is less than mean-2SD of the average DMSO control.
To record hERG current, the cells were clamped at −80 mV initially, then followed by a 5-s depolarization at +40 mV to activate the channels (phase a in FIG. 10A). Tail currents were measured during an ensuing return to −35 mV for 2 seconds (phase b in FIG. 10A). Final holding potential at −70 mV (phase c in FIG. 10B).

[11] = compound at 10 micromolar, mallotoxin 16 micromolar
[12] = 16 μM mallotoxin, blockers dose-dependent (30 μM, 30 min pretreatment in FIG. 8A)

N#CC(C#N)=Cc1ccc([N+](=O)[O-])c(O)c1 [AG-126]
hERG pathway activity class by label-free biosensor [1]: hERG pathway activator, specifically in the endogenous hERG channel complex in HT29 | modulation of the mallotoxin DMR signal in HT29 cells [2, 11]: only partially attenuated | effect on hERG ion flux (Rb+ flux, FIG. 6) [3]: little or no impact; also recorded: non-effector in hERG ion flux

O=C(Nc1cc(C(F)(F)F)ccc1O)Nc1cc(C(F)(F)F)ccc1O [NS1643]
DMR signal in HEK-hERG cells ([4]; concentration not given, data not shown): induced a detectable DMR signal

COc1cc(N)c(Cl)cc1C(=O)NC1CCN(CCCOc2ccc(F)cc2)CC1OC (stereo not shown) [cisapride]
effect of pretreatment on the mallotoxin DMR signal in HEK-hERG cells [5]: dose-dependent suppression

O=C(O)c1cc(-c2ccc(F)cc2F)ccc1O [diflunisal]
hERG pathway activity class by label-free biosensor [1]: hERG pathway activator | modulation of the mallotoxin DMR signal in HT29 cells [2, 11]: completely desensitized | Rb+ signal in HEK-hERG cells ([3]; 5 mM KCl, compound at 10 or 50 μM): only at 50 μM triggered a detectable increase | effect on hERG ion flux (Rb+ flux, FIG. 6) [3]: weak hERG ion flux activator | score of modulation index in coordination, HEK-hERG coordinate ([5]; human): 1

O=C(O)c1cccnc1Nc1cccc(C(F)(F)F)c1 [niflumic acid]
hERG pathway activity class by label-free biosensor [1]: hERG pathway activator

CC(C)(O)[C@H]1O[C@H]2CC[C@@]3(C)[C@@](O)(CC[C@H]4Cc5c([nH]c6ccccc56)[C@@]43C)C2=CC1=O [paxilline]
effect of pretreatment on the mallotoxin DMR signal in HEK-hERG cells [5, 12]: no effect

C=C(C)[C@H]1O[C@H]2CC[C@@]3(C)[C@@](O)(CC[C@H]4[C@@H]5OC(C)(C)[C@H]6C[C@@H]7C(=C)Cc8c(Cl)cc9[nH]c(c5c9c8[C@@]76O)[C@@]43C)[C@@]23O[C@H]3[C@H]1O [penitrem A]
effect of pretreatment on the mallotoxin DMR signal in HEK-hERG cells [5, 12]: no effect

O=C1NCCN1CCN1CCC(c2cn(-c3ccc(F)cc3)c3ccc(Cl)cc23)CC1 [sertindole]
DMR signal in HT29 cells [6]: did not trigger any DMR signals | modulation of the mallotoxin DMR signal in HT29 cells ([2]; dose dependent, concentrations not given): attenuated | DMR signal in HEK293 cells [7]: did not trigger any DMR signals | DMR signal in HEK-hERG cells [4]: did not trigger any DMR signals

N#CC(C#N)=C(N)/C(C#N)=C/c1cc(O)c(O)c(O)c1 [tyrphostin 51]
hERG pathway activity class by label-free biosensor [1]: hERG pathway activator | modulation of the mallotoxin DMR signal in HT29 cells [2, 11]: only partially attenuated | effect on activity of phosphodiesterase 4 [8]: suppresses the activity | effect on hERG ion flux (Rb+ flux, FIG. 6) [3]: little impact; also recorded: weak hERG ion flux activator | effect on activity of PKC [9]: suppresses the activity | DMR signal in HEK-hERG cells ([4]; compound at 10 μM): robust but different DMR signals | effect on hERG tail current ([10]; 50 μM, tail current at return to −35 mV): significantly suppressed | effect on hERG current ([10]; final compound concentration 50 μM): hERG current inhibitor
